Entries after “also recorded” stand apart in the source; their conditions may differ. Where a name gives a salt, the structure may show the parent alone. Read-outs that look alike come from different tables or passages of the source.
Tests used:
[1] = tested on: goggled eyes (form-deprivation myopia); conditions: daily intravitreal injection, result in words
[2] = tested on: non-goggled eyes; format: in vivo, White leghorn chicks; conditions: for Equatorial diameter (calipers) / axial length calipers / axial length ultrasound / refraction / vitreous chamber depth (ultrasound): daily intravitreal dose(s) at which drug-treated differ from contralateral vehicle-treated eyes (P<0.05, Tukey test); for effect on lens thickness / anterior chamber depth, drug-treated vs vehicle-treated eyes: primary outcome comparison
Text: Chicks were anesthetized with inhalation ether for all goggle applications and drug injections. The experimental eye was the right eye in half of the chicks, and the left eye in the other half of the chicks, assigned in an alternating order within each group. Form-deprivation myopia was induced by attaching a unilateral translucent white plastic goggle to the periorbital feathers with cyanoacrylate glue. All research conformed with the ARVO Resolution on the Use of Animals in Ophthalmic and Vision Research.
All goggle applications and/or drug injections began when the chicks reached one week of age. At about four hours into the light phase, a 10 μl intravitreal injection of either drug+vehicle or vehicle alone was given under aseptic conditions to the goggled or experimental non-goggled eye, with all contralateral eyes concurrently receiving vehicle injections.
On this day, the animals received no intraocular injections. […] While still under general anesthesia, the chicks were decapitated; and the axial and equatorial dimensions of enucleated eyes were measured with digital calipers. As the coronal profile of the chick eye is elliptical, the equatorial dimension was reported as the mean of the shortest and longest equatorial dimensions.
For goggled chicks, the primary measure of outcome was the drug effect on the ocular response to wearing a goggle, and comparisons of individual doses to each other and to vehicle-treated controls for each drug. Differences in refraction and each size measurement between goggled and contralateral eyes were assessed by one-way analysis of variance (ANOVA). For non-goggled chicks, the primary outcome measure was comparison of drug-treated to contralateral vehicle-treated eyes using a two-way repeated measures ANOVA (one factor replication, using eye as the replicated factor) for refractions and measurements.
The statistical outcomes with the two-way ANOVA are mainly described by the drug-treated to contralateral eye comparison. […] When the ANOVA assumptions of normality or equal variance were not met, the corresponding ANOVA on ranks was used. […] The Figures show the P values when the overall ANOVA reached a significance level of at least P<0.05, and the post-hoc tests for within group comparisons appear in the Tables that follow.

[3] = non-goggled eyes, drug-treated vs contralateral vehicle-treated eyes, result in words
[4] = non-goggled chicks receiving the 10 μg dose, mean±S.E.M.
[5] = non-goggled chicks, 10 μg dose, mean±S.E.M.
[6] = non-goggled chicks, contralateral vehicle-treated eyes
[7] = non-goggled chicks, drug-treated eyes
[8] = non-goggled eyes, result in words
[9] = non-goggled eyes, drug-treated vs contralateral vehicle-treated eyes, result in words, listed as muscimol, hydrobromide

In the case of `NCC(O)(CS(=O)(=O)O)c1ccc(Cl)cc1` (stereo not drawn) [2OH-saclofen, 2-hydroxysaclofen], the “effect on axial dimensions (axial length, vitreous chamber depth; ultrasound or calipers) of goggled eyes” value (shortened to “effect on axial dimensions”) [1] is reported as “none of the tendencies of either drug to reduce ocular dimensions by ultrasound or calipers reached statistical significance” and the “effect on myopic refraction of goggled eyes” value (from here on “effect on myopic refraction”) [1] is reported as “reduced the myopic refractions”.

`NC[C@H](CC(=O)O)c1ccc(Cl)cc1` [Baclofen, R(+)-baclofen] was tested, and the “Equatorial diameter (calipers)” value ([2]; non-goggled eyes) was “n.s. (n.s., P ≧ 0.05 by ANOVA)”, the axial length calipers ([2]; non-goggled eyes) was “* (P < 0.05 by ANOVA for drug-treated vs. contralateral eyes, but no specific pair-wise comparison identified by the Tukey test.)” and the axial length ultrasound ([2]; non-goggled eyes) was “n.s. (n.s., P ≧ 0.05 by ANOVA)”. The refraction ([2]; non-goggled eyes) was “n.s. (n.s., P ≧ 0.05 by ANOVA)”, the “vitreous chamber depth (ultrasound)” value ([2]; non-goggled eyes) was 100 µg and the “effect on axial growth / axial length and vitreous chamber depth of non-goggled eyes” value [2, 3] was “modest deepening of the vitreous chamber”. For the same molecule, the “effect on refraction of non-goggled eyes” value [2, 3] was “None of the other effects of baclofen on the non-goggled eyes, including refractions (data not shown), reached statistical significance”, the “effect on axial dimensions” value [1] was “neither the ultrasound nor the caliper measurements revealed statistically significant growth inhibition” and the “effect on myopic refraction” value [1] was “partially reduced the myopic refractive error”. For the same molecule, the “overall effect on form-deprivation myopia (refraction and size measurements) of goggled eyes” value [1] was “weak anti-myopia effect”.

`NC/C=C\C(=O)O` [CACA, cis-4-aminocrotomc acid] was tested, and the “anterior chamber depth of contralateral vehicle-treated eyes” value [2, 4] was 1.31±0.03 mm, the “lens thickness of contralateral vehicle-treated eyes” value [2, 4] was 2.22±0.02 mm and the “anterior chamber depth of drug-treated eyes” value [2, 5] was 1.32±0.03 mm. For the same molecule, the “lens thickness of drug-treated eyes” value [2, 5] was 2.22±0.02 mm, the “lens thinner in contralateral vehicle-treated eyes at 10 μg than in the other two cohorts (100 or 200 μg)” value [2, 6] was 0.10 mm and the “anterior chambers deeper at the 10 μg dose than at the higher doses” value ([2]; non-goggled chicks, drug- and vehicle-treated eyes, vs 50, 100 or 200 μg) was 0.08-0.14 mm. The “lens thinner in drug-treated eyes at 10 μg than at the 100 or 200 μg doses” value [2, 7] was 0.16 mm, the “Equatorial diameter (calipers)” value ([2]; non-goggled eyes) was “n.s. (n.s., P ≧ 0.05 by ANOVA)” and the axial length calipers ([2]; non-goggled eyes) was “n.s. (n.s., P ≧ 0.05 by ANOVA)”. For the same molecule, the axial length ultrasound ([2]; non-goggled eyes) was 50 µg, the refraction ([2]; non-goggled eyes) was “n.s. (n.s., P ≧ 0.05 by ANOVA)” and the “vitreous chamber depth (ultrasound)” value ([2]; non-goggled eyes) was “n.s. (n.s., P ≧ 0.05 by ANOVA)”. The “effect on axial growth / axial length and vitreous chamber depth of non-goggled eyes” value [2, 3] was “slightly stimulated axial length by ultrasound; also recorded: stimulate axial growth to a modest degree”, the “effect on equatorial diameter of non-goggled eyes” value [2, 3] was “without altering refraction or affecting equatorial diameter” and the “effect on refraction of non-goggled eyes” value [2, 3] was “not affecting refraction; also recorded: without altering refraction”. The “effect on lens thickness / anterior chamber depth, drug-treated vs vehicle-treated eyes” value [2, 8] was “did not affect lens thickness or anterior chamber depth”, the “effect on axial dimensions” value [1] was “not accompanied by any statistically identifiable changes in axial measurements” and the “effect on equatorial diameter / equatorial expansion of goggled eyes (calipers)” value [1] was “no change in the equatorial dimension”. The “effect on myopic refraction” value [1] was “modest, perhaps biphasic effect” and the “overall effect on form-deprivation myopia (refraction and size measurements) of goggled eyes” value [1] was “none of the size measurements were altered”.

In the case of `CCOC(OCC)P(=O)(O)CCCN` [CGP35348, (3-aminopropyl)(diethoxy-methyl)phosphinic acid], the “overall effect on form-deprivation myopia (refraction and size measurements) of goggled eyes” value [1] is reported as “no statistical effect”.

For `NCCCP(=O)(O)CC1CCCCC1` [CGP46381, (3-aminopropyl)(cyclo-hexylmethyl)phosphinic acid], the “lens thickness of contralateral vehicle-treated eyes” value [2, 4] was 2.26±0.03 mm, the “lens thickness of drug-treated eyes” value [2, 5] was 2.27±0.04 mm and the “lens thicker in vehicle-treated eyes at 10 μg than at the 100 μg dose” value [2, 6] was 0.06 mm. The “lens thicker in drug-treated eyes at 10 μg than at the 100 μg dose” value [2, 7] was 0.07 mm, the “Equatorial diameter (calipers)” value ([2]; non-goggled eyes) was “n.s. (n.s., P ≧ 0.05 by ANOVA)” and the axial length calipers ([2]; non-goggled eyes) was “n.s. (n.s., P ≧ 0.05 by ANOVA)”. The axial length ultrasound ([2]; non-goggled eyes) was “n.s. (n.s., P ≧ 0.05 by ANOVA)”, the “vitreous chamber depth (ultrasound)” value ([2]; non-goggled eyes) was 100 µg and the “effect on axial growth / axial length and vitreous chamber depth of non-goggled eyes” value [2, 3] was “slightly enhanced vitreous chamber length”. The “effect on equatorial diameter of non-goggled eyes” value [2, 3] was “did not exert statistically identifiable changes”, the “effect on refraction of non-goggled eyes” value [2, 3] was “did not exert statistically identifiable changes” and the “effect on lens thickness / anterior chamber depth, drug-treated vs vehicle-treated eyes” value [2, 8] was “no influence on lens thickness”. For the same molecule, the “effect on axial dimensions” value [1] was “inhibited the myopic refractive shift, the axial and vitreous chamber elongation”, the “effect on equatorial diameter / equatorial expansion of goggled eyes (calipers)” value [1] was “inhibited the myopic refractive shift, the axial and vitreous chamber elongation, and the equatorial expansion” and the “effect on myopic refraction” value [1] was “inhibited the myopic refractive shift”. The “overall effect on form-deprivation myopia (refraction and size measurements) of goggled eyes” value [1] was “potent anti-myopia effects; also recorded: inhibiting myopia and limiting axial vitreous chamber and equatorial expansion”.

With `NCc1cc(=O)[nH]o1` [Muscimol, Muscimol hydrobromide] the “refraction of contralateral vehicle-treated eyes” value ([2]; non-goggled chicks, 5 μg daily dose to the other eye, mean±S.E.M.) was 0.86±0.58 D, the “refraction of contralateral vehicle-treated eyes” value ([2]; non-goggled chicks, 10 μg daily dose to the other eye, mean±S.E.M.) was “+0.11±0.82 D” and the “refraction of contralateral vehicle-treated eyes” value ([2]; non-goggled chicks, 50 μg daily dose to the other eye, mean±S.E.M.) was 1.78±1.21 D. The “refraction of contralateral vehicle-treated eyes” value ([2]; non-goggled chicks, 200 μg daily dose to the other eye, mean±S.E.M.) was 3.82±0.83 D, the “dose of maximum effect on refraction (shift to myopia) of non-goggled eyes” value ([2]; non-goggled eyes, daily intravitreal injection) was 50 µg and the “effect on refraction of non-goggled eyes” value ([2]; non-goggled eyes, drug-treated vs contralateral vehicle-treated eyes, result in words, hydrobromide) was “induces a statistically significant myopic shift in refraction”. The “effect on axial growth / axial length and vitreous chamber depth of non-goggled eyes” value [2, 9] was “stimulated axial growth as measured by either ultrasound or calipers, and deepened the vitreous chamber; also recorded: increasing not only axial and vitreous chamber lengths”, the “effect on equatorial diameter of non-goggled eyes” value [2, 9] was “increased the equatorial diameter; also recorded: expanding the equatorial diameter” and the “effect on refraction of non-goggled eyes” value [2, 9] was “shifted the refraction to myopia; also recorded: statistically significant shift in refraction”. For the same molecule, the “overall effect on form-deprivation myopia (refraction and size measurements) of goggled eyes” value [1] was “did not affect refraction, ultrasound or caliper measurements”.

`CC1(C)CO[C@@H](CC(=O)O)CN1` [SCH50911, (+)-(2S)-5,5-dimethyl-2-morpholineacetic acid] was tested, and the “effect on axial dimensions” value [1] was “none of the tendencies of either drug to reduce ocular dimensions by ultrasound or calipers reached statistical significance” and the “effect on myopic refraction” value [1] was “reduced the myopic refractions”.

`NC/C=C/C(=O)O` [TACA, Trans-4-aminocrotonic acid] was tested, and the “overall effect on refraction and ocular size / eye growth of non-goggled eyes” value [2, 3] was “influenced neither refraction nor ocular size measurements” and the “overall effect on form-deprivation myopia (refraction and size measurements) of goggled eyes” value [1] was “no statistically significant effects”.

Source: US20060264508A1, “Modulation of ocular growth and myopia by gaba drugs” (priority 2001, published 2006)
